According to patent US11912691B2, “Tocotrienols derivates, methods and uses thereof” (GLOBAL SCIENTIFIC, priority 2020, dated 2024):
Entries after “also recorded” stand apart in the source; their conditions may differ. Where two headings read alike, the source gives them in different places.

What was measured:
[1] = Chemical stability in a cosmetic formulation, accelerated aging test (45° C., 3 months); conditions: for % of the Compound after 3 Months: 0.1% m/m in cosmetic formulation, oven at 45° C., HPLC; for Stability in the cosmetic formulation (in words): 45° C., ferulyl compound also in cold storage; for % of the Compound after 3 Months / Stability in the cosmetic formulation (in words): 3 months
Description: In an embodiment, the chemical stability of the modified molecules was evaluated in accelerated degradation tests. For this purpose, the test molecules were formulated in a cosmetic relevant formulation and its degradations were assessed for a period of 3 months.
In an embodiment, the cosmetic formulation may comprise water, jojoba seed oil, butylene glycol, squalane, sodium hyaluronate, cetearyl alcohol and a carbomer.
In an embodiment, test molecules were added to the cosmetic formulation at 0.1% m/m level, thoroughly homogenized to ensure uniform dispersion and stored in closed glass bottles in an oven at 45° C. for 3 months. In order to evaluate homogeneity and stability, 3 samples were collected from random positions immediately after preparation and at each time point evaluated. The quantification of the test molecules was performed by HPLC.
In an embodiment, the preparation of the mixtures for evaluation of the stability was performed according to the following experimental protocol. The mass of compound was weighed and dissolved in 2-(2-ethoxyethoxy)ethanol (also weighed) and added to a known mass of moisturizer product. The mixture was homogenized, and 3 samples were collected to confirm homogenous distribution and initial concentration of modified molecules. The mixtures were then stored in an oven at 45° C. for 3 months (Table IV).
In an embodiment, the stability of the test molecules in the cosmetic formulation was determined. The test mixtures were sampled in triplicate from random zones. The samples were prepared for analysis by solubilizing them in acetonitrile and the quantification of the modified and non-modified tocopherol and tocotrienol molecules was performed by HPLC. The % of the initial compounds is described in Table IV.

[2] = for Rank of the nicotinic acid level in the permeate solutions: within molecules without a linker / within molecules with a linker
Description: In an embodiment, the penetration into human skin and the conversion of the modified tocotrienols and modified α-tocotrienols with linkers molecules in the human skin were evaluated by permeation experiments using Franz diffusion cells. The conversion profile was evaluated and quantified by measuring nicotinic acid or nicotinyl alcohol in the permeate solutions.
In an embodiment, the skin permeation of the modified compounds was assessed. The permeation tests were performed with full thickness human skin. These samples were obtained at a local hospital, from healthy donors undergoing cosmetic surgery. The excised skin was stored in a PBS solution containing 10% antibiotic and maintained at 4° C., until further processing in the laboratory. When the skin sample was received, the underlying fat tissue was removed and discarded. The remaining skin (dermis and epidermis layers) was cut into pieces of approximately 1.5×1.5 cm. When the permeation experiments were executed with fresh skin, the samples were immediately used. Otherwise, the pre-cut skin samples were frozen at −80° C. and stored for further use. When reclaiming the frozen skin samples, the samples were removed from storage and thawed to room temperature for 1 hour before further manipulation.
The permeation experiments were performed in Franz diffusion cells. These diffusion cells are constituted by a donor compartment, where the formulation containing the permeate molecule is placed, and a receptor compartment containing the receptor fluid where the permeate molecule is collected and accumulated in time. The skin sample is placed between the donor and receptor compartments and is also equipped with a sampling access that allows for the collection of samples (a certain volume of the receptor fluid) without requiring the disassembly of the cell and therefore allows for the permeation experiment to continue (FIG. 3).
At the start of the experiment, the receptor compartment is filled with the receptor fluid, the skin sample is placed in place with care so as to not form air bubbles underneath. The donor receptor is positioned in place and clamped. The assembly is then placed in the thermostatic (37° C.) bath for 30 min to allow temperature equilibration. After the equilibration time, the level of the receptor fluid is adjusted as necessary. The receptor compartment is equipped with a magnetic mixer, ensuring the solution homogeneity during the course of the permeation experiment.
In an embodiment, the permeate solutions are monitored for the presence of nicotinic acid released from the modified tocopherol and tocotrienols molecules. The amount of nicotinic acid is quantified by HPLC using an ion pairing method. The concentration of nicotinic acid is calculated from a standard calibration curve of known nicotinic acid concentration solutions measured in the same conditions. The HPLC analysis is performed on a Knauer chromatograph consisting of 3 modules: Smartline manager 5000, Smartline pump 1000 and Smartline UV Detector 2600. The UV detector is fitted with a photodiode array (PDA) which allows for the continuous monitoring from 190-450 nm. The online chromatograms are monitored at 254 nm. The eluent comprises an ion-pairing eluent (50 mM of tetrabutylammonium hydroxide (TBAOH), pH corrected to 7.4 with hydrogenphosphate dibasic ([…])) containing 10% of acetonitrile at a flow of 1 mL/min and the column used is an Atlantis T3 4.6×250 mm (with guard column of same type 4.6×20 mm) at 30° C.
In an embodiment, the skin permeation experiments are performed with formulations of different concentrations of modified tocotrienol and tocopherol molecules. The modified molecules are dissolved at concentrations of 5% and 10% m/m in a mixture of equal volumes of 2-(2-ethoxyethoxy)ethanol and propylene glycol and 150 μl of these solutions are applied on the skin samples.

[3] = modified α-tocotrienols with linkers, donor solution 10% m/m, 24 hours
[4] = modified α-tocotrienols with linkers, donor solution 10% m/m, 48 hours
[5] = donor solution 5% m/m, 48 hours, human skin, Franz cell
[6] = donor solution 10% m/m, 48 hours, human skin, Franz cell

SMILES: Cc1c(C)c2c(c(C)c1O)CC[C@@](C)(CCC[C@H](C)CCC[C@H](C)CCCC(C)C)O2 [α-tocopherol, reference compound]
- % of the Compound after 3 Months [1]: 44%

SMILES: Cc1c(C)c2c(c(C)c1OC(=O)c1cccnc1)CC[C@@](C)(CCC[C@H](C)CCC[C@H](C)CCCC(C)C)O2 [α-tocopheryl nicotinate, reference compound]
- % of the Compound after 3 Months [1]: ≥95%

SMILES: CC(C)=CCC/C(C)=C/CC/C(C)=C/CC[C@]1(C)CCc2c(C)c(O)c(C)c(C)c2O1 [α-tocotrienol, reference compound]
- % of the Compound after 3 Months [1]: 53%

SMILES: COc1cc(/C=C/C(=O)Oc2c(C)c(C)c3c(c2C)CCC(C)(CC/C=C(\C)CC/C=C(\C)CCC=C(C)C)O3)ccc1OC(=O)c1cccnc1 (stereo not drawn) [α-tocotrienyl ferulyl nicotinate]
- Concentration of nicotinic acid in the permeate solution [2, 3]: 1.19 µg/mL
- Concentration of nicotinic acid in the permeate solution [2, 4]: 2.96 µg/mL
- % of the Compound after 3 Months [1]: 0%
- Stability in the cosmetic formulation (in words) [1]: unstable even in cold storage conditions; also recorded: not stable

SMILES: CC(C)=CCC/C(C)=C/CC/C(C)=C/CCC1(C)CCc2c(C)c(OC(=O)CNC(=O)c3cccnc3)c(C)c(C)c2O1 (stereo not drawn) [α-tocotrienyl glycinyl nicotinate]
- Concentration of nicotinic acid in the permeate solution [2, 3]: 0.18 µg/mL
- Concentration of nicotinic acid in the permeate solution [2, 4]: 0.38 µg/mL
- % of the Compound after 3 Months [1]: ≥95%
- Stability in the cosmetic formulation (in words) [1]: excellent stability

SMILES: CC(C)=CCC/C(C)=C/CC/C(C)=C/CCC1(C)CCc2c(C)c(OC(=O)COC(=O)c3cccnc3)c(C)c(C)c2O1 (stereo not drawn) [α-tocotrienyl glycolyl nicotinate]
- Rate of conversion into the parent molecules relative to the other modified tocotrienols ([2]; human skin): higher rate
- Concentration of nicotinic acid in the permeate solution [2, 3]: 3.02 µg/mL
- Concentration of nicotinic acid in the permeate solution [2, 4]: 8.18 µg/mL
- Rank of the nicotinic acid level in the permeate solutions [2]: highest level
- % of the Compound after 3 Months [1]: ≥95%
- Stability in the cosmetic formulation (in words) [1]: excellent stability

SMILES: CC(C)=CCC/C(C)=C/CC/C(C)=C/CCC1(C)CCc2c(C)c(OC(=O)c3cccnc3)c(C)c(C)c2O1 (stereo not drawn) [α-tocotrienyl nicotinate]
- Concentration of nicotinic acid in the permeate solution ([2]; donor solution 5% m/m, 24 hours, human skin, Franz cell): 0.32 µg/mL
- Concentration of nicotinic acid in the permeate solution ([2]; donor solution 5% m/m, 33 hours, human skin, Franz cell): 0.54 µg/mL
- Concentration of nicotinic acid in the permeate solution [2, 5]: 0.89 µg/mL
- Concentration of nicotinic acid in the permeate solution [2, 6]: 2.83 µg/mL
- Rate of conversion into the parent molecules relative to the other modified tocotrienols ([2]; human skin): higher rate
- Release of nicotinic acid relative to α-tocopheryl nicotinate ([2]; human skin, Franz cell): faster
- Release of nicotinic acid relative to γ-tocotrienyl nicotinate or δ-tocotrienyl nicotinate ([2]; human skin, Franz cell): three times faster
- Rank of the nicotinic acid level in the permeate solutions [2]: highest level
- % of the Compound after 3 Months [1]: ≥95%

SMILES: CC(C)=CCCC(C)=CCCC(C)=CCCC1(C)CCc2c(C)c(OC(=O)CCC(=O)OCc3cccnc3)c(C)c(C)c2O1 (stereo not drawn) [α-tocotrienyl nicotinyl succinate]
- Remaining fraction of the initial mass after 3 months of accelerated aging [1]: > 95%
- % of the Compound after 3 Months [1]: ≥95%

SMILES: CC(C)=CCC/C(C)=C/CC/C(C)=C/CC[C@]1(C)CCc2cc(O)c(C)c(C)c2O1 [γ-tocotrienol, reference compound]
- % of the Compound after 3 Months [1]: 20%

SMILES: CC(C)=CCC/C(C)=C/CC/C(C)=C/CCC1(C)CCc2cc(OC(=O)c3cccnc3)c(C)c(C)c2O1 (stereo not shown) [γ-tocotrienyl nicotinate]
- Concentration of nicotinic acid in the permeate solution [2, 5]: 0.09 µg/mL
- Concentration of nicotinic acid in the permeate solution [2, 6]: 0.70 µg/mL
- % of the Compound after 3 Months [1]: ≥95%

SMILES: CC(C)=CCC/C(C)=C/CC/C(C)=C/CC[C@]1(C)CCc2cc(O)cc(C)c2O1 [δ-tocotrienol, reference compound]
- % of the Compound after 3 Months [1]: 57%

SMILES: CC(C)=CCCC(C)=CCCC(C)=CCCC1(C)CCc2cc(OC(=O)c3cccnc3)cc(C)c2O1 (stereo not shown) [δ-tocotrienyl nicotinate]
- % of the Compound after 3 Months [1]: ≥95%
